Reference: ChEMBL document CHEMBL3885881, “DrugMatrix”

Species on record: Rattus norvegicus
Test: DrugMatrix - Regimen: Daily Repeat
Format: toxicity, organism-based, Sprague-Dawley
Parameters: regimen Daily Repeat, gender Male, age 6-8 weeks
Details: in vivo, vehicle 100 % SALINE; for ABSOLUTE BASOPHIL / ABSOLUTE EOSINOPHIL / ABSOLUTE LYMPHOCYTE / ABSOLUTE MONOCYTE / ABSOLUTE SEGMENTED NEUTROPHIL / BASOPHIL / EOSINOPHIL / ERYTHROCYTE COUNT / HEMATOCRIT / HEMOGLOBIN / LEUKOCYTE COUNT / LYMPHOCYTE / MEAN CORPUSCULAR HEMOGLOBIN / MEAN CORPUSCULAR HEMOGLOBIN CONCENTRATION / MEAN CORPUSCULAR VOLUME / MONOCYTE / NEUTROPHIL / NUCLEATED RED BLOOD CELLS / PLATELET COUNT: tissue Blood
[1] = iv, 0 mg/kg, 72 h, dose level Control, time 3 day
[2] = iv, 0 mg/kg, 72 h, tissue Plasma, dose level Control, time 3 day
[3] = iv, 0 mg/kg, 120 h, dose level Control, time 5 day
[4] = iv, 0 mg/kg, 120 h, tissue Plasma, dose level Control, time 5 day
[5] = iv, 6 mg/kg, 72 h, dose level Low, time 3 day
[6] = iv, 6 mg/kg, 72 h, tissue Plasma, dose level Low, time 3 day

For CARBOPLATIN, the “TOTAL PROTEIN” value (ip, 5 mg/kg, […], tissue Plasma, route intraperitoneal, dose level High, time 28 day) was 6.92 G/DL, the “ABSOLUTE BASOPHIL” value [1] was 0 CELLS/uL and the “ABSOLUTE EOSINOPHIL” value [1] was 0 CELLS/uL. For the same sequence, the “ABSOLUTE LYMPHOCYTE” value [1] was 7026.17 CELLS/uL, the “ABSOLUTE MONOCYTE” value [1] was 44.33 CELLS/uL and the “ABSOLUTE SEGMENTED NEUTROPHIL” value [1] was 379.5 CELLS/uL. The BASOPHIL [1] was 0%, the EOSINOPHIL [1] was 0% and the “ERYTHROCYTE COUNT” value [1] was 5.49 x10E6/uL. For the same sequence, the HEMATOCRIT [1] was 33.67%, the HEMOGLOBIN [1] was 13.17 G/DL and the “LEUKOCYTE COUNT” value [1] was 7.45 x10E3/uL. The LYMPHOCYTE [1] was 94%, the “MEAN CORPUSCULAR HEMOGLOBIN” value [1] was 24.03 pg and the “MEAN CORPUSCULAR HEMOGLOBIN CONCENTRATION” value [1] was 39.15 G/DL. For the same sequence, the “MEAN CORPUSCULAR VOLUME” value [1] was 61.4 fL, the MONOCYTE [1] was 0.67% and the NEUTROPHIL [1] was 5.33%. For the same sequence, the “NUCLEATED RED BLOOD CELLS” value [1] was 0.17 /100WBC, the “PLATELET COUNT” value [1] was 1062.5 x10E3/uL and the “ALANINE AMINOTRANSFERASE” value [2] was 53.17 u/L. The “ALKALINE PHOSPHATASE” value [2] was 339.83 u/L, the “ASPARTATE AMINOTRANSFERASE” value [2] was 83.33 u/L and the “BLOOD UREA NITROGEN” value [2] was 16 mg/dL. For the same sequence, the “CARBON DIOXIDE” value [2] was 32.5 mmol/L, the CHLORIDE [2] was 98 MEQ/L and the CHOLESTEROL [2] was 74.67 mg/dL. For the same sequence, the “CREATINE PHOSPHOKINASE” value [2] was 284 u/L, the CREATININE [2] was 0.2 mg/dL and the GLUCOSE [2] was 128.67 mg/dL. The “LACTATE DEHYDROGENASE” value [2] was 110.33 u/L, the LIPASE [2] was 9 u/L and the PHOSPHORUS [2] was 11.73 mg/dL. For the same sequence, the POTASSIUM [2] was 6.34 MEQ/L, the “TOTAL BILIRUBIN” value [2] was 0.18 mg/dL and the “TOTAL PROTEIN” value [2] was 6.2 G/DL. The “URIC ACID” value [2] was 1.28 mg/dL, the “ABSOLUTE BASOPHIL” value [3] was 0 CELLS/uL and the “ABSOLUTE EOSINOPHIL” value [3] was 26.67 CELLS/uL. The “ABSOLUTE LYMPHOCYTE” value [3] was 8334.17 CELLS/uL, the “ABSOLUTE MONOCYTE” value [3] was 29.5 CELLS/uL and the “ABSOLUTE SEGMENTED NEUTROPHIL” value [3] was 593 CELLS/uL. The BASOPHIL [3] was 0%, the EOSINOPHIL [3] was 0.33% and the “ERYTHROCYTE COUNT” value [3] was 5.44 x10E6/uL. For the same sequence, the HEMATOCRIT [3] was 33.77%, the HEMOGLOBIN [3] was 13.05 G/DL and the “LEUKOCYTE COUNT” value [3] was 8.98 x10E3/uL. The LYMPHOCYTE [3] was 92.33%, the “MEAN CORPUSCULAR HEMOGLOBIN” value [3] was 24 pg and the “MEAN CORPUSCULAR HEMOGLOBIN CONCENTRATION” value [3] was 38.67 G/DL. For the same sequence, the “MEAN CORPUSCULAR VOLUME” value [3] was 62.05 fL, the MONOCYTE [3] was 0.33% and the NEUTROPHIL [3] was 7%. For the same sequence, the “NUCLEATED RED BLOOD CELLS” value [3] was 0 /100WBC, the “PLATELET COUNT” value [3] was 987 x10E3/uL and the “ALANINE AMINOTRANSFERASE” value [4] was 43.5 u/L. The “ALKALINE PHOSPHATASE” value [4] was 310.17 u/L, the “ASPARTATE AMINOTRANSFERASE” value [4] was 76.67 u/L and the “BLOOD UREA NITROGEN” value [4] was 17 mg/dL. For the same sequence, the CHLORIDE [4] was 100.33 MEQ/L, the CHOLESTEROL [4] was 69.33 mg/dL and the “CREATINE PHOSPHOKINASE” value [4] was 218.67 u/L. The CREATININE [4] was 0.22 mg/dL, the GLUCOSE [4] was 155.17 mg/dL and the PHOSPHORUS [4] was 11.2 mg/dL. The POTASSIUM [4] was 5.5 MEQ/L, the “TOTAL BILIRUBIN” value [4] was 0.18 mg/dL and the “TOTAL PROTEIN” value [4] was 5.97 G/DL. For the same sequence, the “URIC ACID” value [4] was 0.88 mg/dL, the “ABSOLUTE BASOPHIL” value [5] was 0 CELLS/uL and the “ABSOLUTE EOSINOPHIL” value [5] was 20.67 CELLS/uL. The “ABSOLUTE LYMPHOCYTE” value [5] was 6996.67 CELLS/uL, the “ABSOLUTE MONOCYTE” value [5] was 29.33 CELLS/uL and the “ABSOLUTE SEGMENTED NEUTROPHIL” value [5] was 353.33 CELLS/uL. The BASOPHIL [5] was 0%, the EOSINOPHIL [5] was 0.33% and the “ERYTHROCYTE COUNT” value [5] was 5.49 x10E6/uL. For the same sequence, the HEMATOCRIT [5] was 35.33%, the HEMOGLOBIN [5] was 13.67 G/DL and the “LEUKOCYTE COUNT” value [5] was 7.4 x10E3/uL. For the same sequence, the LYMPHOCYTE [5] was 94.67%, the “MEAN CORPUSCULAR HEMOGLOBIN CONCENTRATION” value [5] was 38.67 G/DL and the MONOCYTE [5] was 0.33%. The NEUTROPHIL [5] was 4.67%, the “NUCLEATED RED BLOOD CELLS” value [5] was 0 /100WBC and the “PLATELET COUNT” value [5] was 803.67 x10E3/uL. The “ALANINE AMINOTRANSFERASE” value [6] was 44.67 u/L, the ALBUMIN [6] was 4.3 G/DL and the “ALKALINE PHOSPHATASE” value [6] was 291.67 u/L. For the same sequence, the “ASPARTATE AMINOTRANSFERASE” value [6] was 75.67 u/L, the “CARBON DIOXIDE” value [6] was 32 mmol/L and the CHLORIDE [6] was 97.67 MEQ/L. For the same sequence, the CHOLESTEROL [6] was 72.33 mg/dL, the “CREATINE PHOSPHOKINASE” value [6] was 262.33 u/L and the CREATININE [6] was 0.2 mg/dL. For the same sequence, the GLUCOSE [6] was 147.33 mg/dL, the “LACTATE DEHYDROGENASE” value [6] was 105 u/L and the LIPASE [6] was 9 u/L. For the same sequence, the POTASSIUM [6] was 6.04 MEQ/L and the “TOTAL BILIRUBIN” value [6] was 0.17 mg/dL.
